For test [1], the target named is T1, Dihydroorotate dehydrogenase (quinone), mitochondrial (Homo sapiens, UniProt Q02127). Put plainly: Inhibition of human DHODH incubated for 30 mins.
Test [2] addresses T1, Dihydroorotate dehydrogenase (quinone), mitochondrial. The experiment in a line: Inhibition of human DHODH at 100 nM for 30 mins relative to control.
Test [3] has the same target. The experiment in a line: Inhibition of human DHODH at 1 uM for 30 mins relative to control.
For test [4] the target is unchanged. The experiment in a line: Potency index, ratio of teriflunomide IC50 to test compound IC50 for human DHODH.

T1 sequence (Q02127 whole entry): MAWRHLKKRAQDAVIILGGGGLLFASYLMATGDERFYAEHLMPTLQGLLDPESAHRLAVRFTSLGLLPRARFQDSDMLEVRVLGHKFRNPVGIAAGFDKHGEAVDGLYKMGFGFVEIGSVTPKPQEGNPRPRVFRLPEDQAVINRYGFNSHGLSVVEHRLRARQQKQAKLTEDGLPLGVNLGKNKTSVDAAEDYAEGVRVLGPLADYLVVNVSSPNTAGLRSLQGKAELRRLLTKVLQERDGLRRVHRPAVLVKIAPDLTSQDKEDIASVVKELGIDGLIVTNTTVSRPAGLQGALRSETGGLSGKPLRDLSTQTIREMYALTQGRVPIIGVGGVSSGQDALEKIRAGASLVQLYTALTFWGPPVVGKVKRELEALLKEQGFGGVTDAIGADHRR

The IC50 is the concentration at which inhibition is half-maximal. Low values mean inhibition by little substance, high ones a need for much substance. As usually defined, the inhibition is the drop in the measured response relative to a control, in per cent. A low value points to a response near the control. The compound `C/C(O)=C(\C#N)C(=O)Nc1cc(O[C@@H](C)C(F)(F)F)c(C(=O)c2ccc(Cl)cc2)cc1F` came in with a 50% inhibitory concentration (IC50) in test [1] of 70.5 nM. The inhibition in test [2] came to 56.8%; in test [3], 91.3%.

The compound `C/C(O)=C(\C#N)C(=O)Nc1ccc(C(F)(F)F)cc1` returned an inhibition in test [2] of 21.5%.

In turn, `C/C(O)=C(\C#N)C(=O)Nc1cc(O[C@@H](C)C(F)(F)F)c(C(=O)c2cccc(Cl)c2)cc1F` yielded an IC50 in test [1] of 54.8 nM. The inhibition was found to be 61.8% in test [2] and 93.7% in test [3].

Consider `COc1ccc(C(=O)c2cc(F)c(NC(=O)/C(C#N)=C(/C)O)cc2O[C@@H](C)C(F)(F)F)cc1`, for which the inhibition in test [2] was determined as 52.1%; in test [3] it was 90%.

`C/C(O)=C(\C#N)C(=O)Nc1cc(OC(C)C)c(C(=O)c2ccccc2)cc1F` came in with an IC50 in test [1] of 37.1 nM. For the same compound, the figures for the inhibition in test [2] and in test [3] were 66.1% and 89.9%, respectively.

For `C/C(O)=C(\C#N)C(=O)Nc1ccc(C(=O)c2ccccc2)c(F)c1`, the inhibition in test [2] worked out at 31.7%; in test [3], 74.1%.

Turning to `C/C(O)=C(\C#N)C(=O)Nc1cc(F)c(C(=O)c2ccccc2)cc1F`, the inhibition in test [2] came to 43.8%; in test [3], 76.3%.

`C/C(O)=C(\C#N)C(=O)Nc1cc(O[C@@H](C)C(F)(F)F)c(C#N)cc1F`: the values for the inhibition in test [2] and in test [3] were 31.8% and 76.3%, respectively.

As to `C/C(O)=C(\C#N)C(=O)Nc1cc(O[C@@H](C)C(F)(F)F)c(C(=O)c2ccc(F)cc2)cc1F`, in test [1], the IC50 turned out to be 71.8 nM. For the same compound, the inhibition in test [2] was determined as 56.4%; in test [3], 91.6%.

`C/C(O)=C(\C#N)C(=O)Nc1cc(O[C@@H](C)C(F)(F)F)c(C(=O)c2ccccc2)cc1F` yielded a half-maximal inhibitory concentration (IC50) in test [1] of 29 nM. In addition, the figures for the inhibition in test [2] and in test [3] were 71.5% and 95.3%, respectively. For the same compound, the Ratio IC50 in test [4] is 14.

As to `C/C(O)=C(\C#N)C(=O)Nc1cc(O[C@@H](C)C(F)(F)F)c(C(=O)c2cccc(F)c2)cc1F`, the midpoint of inhibition in test [1], the IC50, lay at 63.5 nM. In addition, the inhibition is 59.3% in test [2] and 92.1% in test [3].

Take `O=C(c1ccccc1)c1ccc(Nc2ncccc2C(=O)O)c(Cl)c1`: the IC50 in test [1] was 63.5 nM. For the same compound, the inhibition in test [2] amounted to 62.4%; in test [3], 88.1%.

In turn, `O=C(c1ccccc1)c1ccc(Nc2ncccc2C(=O)O)c(F)c1` showed a half-maximal inhibitory concentration (IC50) in test [1] of 66.1 nM. For the same compound, the inhibition was found to be 57.7% in test [2] and 86.3% in test [3].

Consider `CCC(C)Oc1cc(NC(=O)/C(C#N)=C(/C)O)c(F)cc1C(=O)c1ccccc1` (stereo unspecified), for which the 50% inhibitory concentration (IC50) in test [1] worked out at 35.6 nM. Further, the inhibition in test [2] came to 65.4%; in test [3], 90.1%.

The compound `COc1cccc(C(=O)c2cc(F)c(NC(=O)/C(C#N)=C(/C)O)cc2O[C@@H](C)C(F)(F)F)c1` yielded an IC50 in test [1] of 69.1 nM. The inhibition in test [2] was determined as 57.2%; in test [3] it was 92.2%.

Regarding `C/C(O)=C(\C#N)C(=O)Nc1ccc(C(=O)c2ccccc2)cc1`, the inhibition is 30.8% in test [2] and 57.3% in test [3].

In the case of `O=C(c1ccccc1)c1ccc(Nc2ncccc2C(=O)O)cc1`, the midpoint of inhibition in test [1], the IC50, lay at 178 nM. For the same compound, the results for the inhibition in test [2] and in test [3] were 38.3% and 80.4%, respectively.

For the compound `C/C(O)=C(\C#N)C(=O)Nc1cc(O[C@@H](C)C(F)(F)F)c(C(=O)c2ccc3ccccc3c2)cc1F`, the inhibition in test [2] is 53.4%; in test [3], 90.2%.

As for `COc1cc(NC(=O)/C(C#N)=C(/C)O)c(F)cc1C(=O)c1ccccc1`, the inhibition turned out to be 48.5% in test [2] and 82.4% in test [3].

In the case of `CCOc1cc(NC(=O)/C(C#N)=C(/C)O)c(F)cc1C(=O)c1ccccc1`, the inhibition in test [2] came out at 49.8%; in test [3], 83.1%.

For the compound `C/C(O)=C(\C#N)C(=O)Nc1ccc(C(=O)c2ccccc2)cc1F`, the inhibition in test [2] came out at 32.1%; in test [3] it was 70.7%.

Compound `O=C(c1ccccc1)c1cc(F)c(Nc2ncccc2C(=O)O)c(F)c1` had an IC50 in test [1] of 35.1 nM. The inhibition was 67.2% in test [2] and 90.4% in test [3].

Source of the values: ChEMBL document CHEMBL5352423, “Discovery of potent human dihydroorotate dehydrogenase inhibitors based on a benzophenone scaffold” (Eur J Med Chem, 2022).
